{
  "source": "patent US11096941B2",
  "about": "“Methods of treating circadian rhythm sleep disorders” (Eisai R&D Management Co., Ltd., priority 2016, dated 2021)",
  "key": {"[1]": {"test_system": "male senescence accelerated mouse prone-8 (SAMP8, P8) strain animals", "test": "Sleep/wake EEG/EMG recording and wake circadian phase in SAMP8 mice after oral administration", "type": "in vivo", "conditions": "for Wake circadian phase, Phase (ZT): least square mean ± standard error", "source_text": "(§1) A compound of Formula (I) was finely crushed and suspended in vehicle, a mixture of 0.5% w/v methylcellulose 400 cP in distilled water. Experimental data were collected on male senescence accelerated mouse prone-8 (“SAMP8” or “P8”) strain animals and male senescence accelerated mouse resistant-1 (“SAMR1” or “R1”) strain animals at the age of 21 weeks. P8 mice are known to show accelerated symptoms of aging and also pathological and behavioral symptoms of Alzheimer's disease, while R1 mice are used to represent a normal aging process and are also used as a control strain for P8 mice. See, e.g., Miyamoto, et al., Exp. Geron., 1997, 32, 139-48; Morley et al., Curr. Pharm. Des., 2012, 18, 1123-30.\n(§2) Electroencephalogram (“EEG”) and electromyogram (“EMG”) electrodes were implanted on each mouse at 17-18 weeks of age, and the mice were then allowed to recover for at least 18 days in individual recording cages, where they could freely move, under a 12-hour light/12-hour dark cycle. Amplified EEG and EMG signals were digitally recorded for 3 days, separated into individual 24-hour recordings, which were initiated at each lights-on event. During the first 30 minutes of the light cycle (ZT 0-0.5), each mouse received an oral administration of either vehicle or 3 mg/kg of the compound of Formula (I) in vehicle or 30 mg/kg of the compound of Formula (I) in vehicle, after which the sleep/wake behavior of mice was recorded until the next lights on event. Each mouse received every treatment in a cross-over fashion with one treatment per day in the following order: vehicle (10 mL/kg bodyweight), 3 mg/kg, and then 30 mg/kg. Some mice started with vehicle on day 1, some mice started with 3 mg/kg compound of Formula (I) on day 1, and some mice started with 30 mg/kg compound of Formula (I) on day 1.\n(§3) EEG frequency and EMG activity signal data were analyzed using software from Kissei Comtec Co., Ltd. to characterize every 10 second epoch as either rapid eye movement (REM) sleep, non-REM sleep, or wakefulness. Then, accumulated wakefulness, non-REM sleep, and REM sleep times over the light cycle (11.5 hours) and the dark cycle (12 hours) were calculated. Additionally, latencies to sleep and REM sleep were calculated as the first appearance of 6 or more epochs of uninterrupted sleep or one or more epochs of REM sleep after the dosing event, respectively. The circadian rhythm parameter phase was determined as the inflection point of a cosine curve fit to the wakefulness distribution in 30 minute bins across the day for every individual mouse using JTK_CYCLE software. Hughes, et al., J. Biol. Rhythms, 2010, 25, 372-80.\n(§4) The differences between P8 mice and R1 mice (control mice) were statistically analyzed by comparing sleep/wake behavior and circadian rhythm of the vehicle-treated animals of each strain, while the effect of administration of a compound of Formula (I) on sleep/wake behavior and circadian rhythm was statistically analyzed for each strain as the difference between sleep/wake behavior and circadian rhythm on the vehicle-administration day and sleep/wake behavior and circadian rhythm on a drug-administration day. Statistical analysis of wakefulness time, non-REM sleep time, REM sleep time and latency, and sleep latency was performed with a linear mixed model which specified animal as random effect, and day, strain, treatment and the interaction between strain and treatment as fixed effects with Kenward-Roger as denominator degrees of freedom using SAS software. For estimation of wakefulness phase and its covariance, a linear mixed model was used which assumed heterogeneous variance of strain and treatment combination with Kenward-Roger as denominator and degrees of freedom using SAS software."}, "[2]": {"test_system": "male senescence accelerated mouse resistant-1 (SAMR1, R1) strain animals", "test": "Sleep/wake EEG/EMG recording and wake circadian phase in SAMR1 mice after oral administration", "type": "in vivo", "source_text": "as §1, §2, §3, §4"}, "[3]": {"conditions": "P8 mice, 3 mg/kg oral at ZT 0-0.5"}, "[4]": {"conditions": "P8 mice, 30 mg/kg oral at ZT 0-0.5"}, "[5]": {"conditions": "P8 mice, 3 and 30 mg/kg oral during ZT 0-0.5, vs vehicle"}, "[6]": {"conditions": "P8 mice, 3 and 30 mg/kg oral, vs vehicle (FIG. 2)"}, "[7]": {"conditions": "3 and 30 mg/kg oral during ZT 0-0.5, vs vehicle"}, "[8]": {"conditions": "3 and 30 mg/kg oral, vs vehicle (FIG. 2)"}},
  "note": "Marks after values point to notes of the source that are not given here.",
  "data": [
    {"molecule": "Cc1ncc(OC[C@@]2(c3cccc(F)c3)C[C@H]2C(=O)Nc2ccc(F)cn2)c(C)n1", "note": "[compound of Formula (I), (1R,2S)-2-(((2,4-dimethylpyrimidin-5-yl)oxy)methyl)-2-(3-fluorophenyl)-N-(5-fluoropyridin-2-yl)cyclopropanecarboxamide]", "values": [
      {"measurement": "Covariance of Phase", "setting": "[1]; [3]", "value": 1.32},
      {"measurement": "Wake circadian phase, Phase (ZT)", "setting": "[1]; [3]", "value": "14.00 ± 0.56", "unit": "ZT"},
      {"measurement": "Covariance of Phase", "setting": "[1]; [4]", "value": 2.11},
      {"measurement": "Wake circadian phase, Phase (ZT)", "setting": "[1]; [4]", "value": "15.41 ± 0.64^b ZT"},
      {"measurement": "wakefulness time during light time", "setting": "[1]; P8 mice, 3 and 30 mg/kg oral at beginning of light time, ZT 0.5-12, vs vehicle (FIG. 1A)", "value": "reduces, in a dose-dependent manner, wakefulness"},
      {"measurement": "phase covariance and phase variability (in words)", "setting": "[1]; [5]", "value": "reduction in phase covariance and phase variability"},
      {"measurement": "wake phase shift (in words)", "setting": "[1]; [5]", "value": "dose-dependent and significant delay (right-shift) of the wake phase"},
      {"measurement": "wakefulness time during dark time", "setting": "[1]; P8 mice, 3 and 30 mg/kg oral in previous light time, ZT 12-24 (FIG. 1A)", "value": "dose-dependent increase in wakefulness"},
      {"measurement": "non-REM sleep time during dark time", "setting": "[1]; P8 mice, 3 and 30 mg/kg oral in previous light time, ZT 12-24 (FIG. 1B)", "value": "decreases in non-REM sleep and REM sleep"},
      {"measurement": "REM sleep time during dark time", "setting": "[1]; P8 mice, 3 and 30 mg/kg oral in previous light time, ZT 12-24 (FIG. 1C)", "value": "decreases in non-REM sleep and REM sleep"},
      {"measurement": "non-REM sleep time during light time", "setting": "[1]; P8 mice, 3 and 30 mg/kg oral, ZT 0.5-12, vs vehicle (FIG. 1B)", "value": "increases non-REM sleep"},
      {"measurement": "REM sleep time during light time", "setting": "[1]; P8 mice, 3 and 30 mg/kg oral, ZT 0.5-12, vs vehicle (FIG. 1C)", "value": "dose-dependent increase in the amount of REM sleep"},
      {"measurement": "REM sleep latency", "setting": "[1]; [6]", "value": "dose-dependent reduction of sleep and REM sleep latencies"},
      {"measurement": "sleep latency", "setting": "[1]; [6]", "value": "dose-dependent reduction of sleep and REM sleep latencies"},
      {"measurement": "wake phase relative to vehicle-treated R1 mice", "setting": "[1]; treated P8 mice, administration during ZT 0-0.5", "value": "correction to the level of vehicle-treated R1 mice"},
      {"measurement": "amounts of wake and non-REM sleep in light time relative to vehicle-treated R1 mice", "setting": "[1]; treated P8 mice, light time", "value": "normalized to the level of vehicle-treated R1 mice"},
      {"measurement": "Covariance of Phase", "setting": "[2]; 3 mg/kg oral at ZT 0-0.5", "value": 5.18},
      {"measurement": "Wake circadian phase, Phase (ZT)", "setting": "[2]; 3 mg/kg oral at ZT 0-0.5, least square mean ± standard error", "value": "15.65 ± 0.87", "unit": "ZT"},
      {"measurement": "vigilance states (wakefulness, non-REM sleep, REM sleep) during dark time", "setting": "[2]; 3 mg/kg oral in previous light time, ZT 12-24", "value": "no effect on each of the vigilance states"},
      {"measurement": "Covariance of Phase", "setting": "[2]; 30 mg/kg oral at ZT 0-0.5", "value": 0.05},
      {"measurement": "Wake circadian phase, Phase (ZT)", "setting": "[2]; 30 mg/kg oral at ZT 0-0.5, least square mean ± standard error", "value": "17.02 ± 0.35^a ZT"},
      {"measurement": "wakefulness time during dark time", "setting": "[2]; 30 mg/kg oral in previous light time, ZT 12-24 (FIG. 1A)", "value": "decrease of wakefulness"},
      {"measurement": "non-REM sleep time during dark time", "setting": "[2]; 30 mg/kg oral in previous light time, ZT 12-24 (FIG. 1B)", "value": "increase of non-REM sleep"},
      {"measurement": "wakefulness time during light time", "setting": "[2]; 3 and 30 mg/kg oral at beginning of light time, ZT 0.5-12, vs vehicle (FIG. 1A)", "value": "reduces, in a dose-dependent manner, wakefulness"},
      {"measurement": "phase covariance and phase variability (in words)", "setting": "[2]; [7]", "value": "reduction in phase covariance and phase variability"},
      {"measurement": "wake phase shift (in words)", "setting": "[2]; [7]", "value": "dose-dependent significant delay (right-shift) of the wake phase"},
      {"measurement": "non-REM sleep time during light time", "setting": "[2]; 3 and 30 mg/kg oral, ZT 0.5-12, vs vehicle (FIG. 1B)", "value": "increases non-REM sleep"},
      {"measurement": "REM sleep time during light time", "setting": "[2]; 3 and 30 mg/kg oral, ZT 0.5-12, vs vehicle (FIG. 1C)", "value": "dose-dependent increase in the amount of REM sleep"},
      {"measurement": "REM sleep latency", "setting": "[2]; [8]", "value": "dose-dependent reduction of sleep and REM sleep latencies"},
      {"measurement": "sleep latency", "setting": "[2]; [8]", "value": "dose-dependent reduction of sleep and REM sleep latencies"}
    ]}
  ]
}
